Source: patent US10131651B2, “[7,6]-fused bicyclic antidiabetic compounds” (Merck Sharp & Dohme Corp., priority 2014, dated 2018)

The molecules below were run against human GPR40 (Homo sapiens (Human), UniProt O14842) (assay: Inositol Phosphate Turnover (IP1) Assay). Conditions: HEK cells stably expressing human GPR40.
Type: cell-based
Experimental: Human and mouse GPR40 stable cell-lines were generated in CHO cells stably expressing NFAT BLA (Beta-lactamase). A human GPR40 stable cell-line was generated in HEK cells stably expressing the acquorin expressing reporter. The expression plasmids were transfected using lipofectamine (Life Technologies) following manufacturer's instructions. Stable cell-lines were generated following drug selection.
The assay is performed in 384-well format. HEK cells stably expressing human GPR40 are plated at 15,000 cells per well in growth medium (DMEM/10% fetal calf serum). Cell plates are then incubated 16 hours at 37 degrees in a 5% CO2 incubator.
Measurement of Inositol Phosphate Turnover (IP1) is performed using the CisBio IP-One kit (Part number 62IPAPEB). After the 16 hour incubation, the cells are washed with HEPES buffer and 10 ul of stimulation buffer (prepared as described in the kit) is added to each well. In a separate plate, compounds are diluted in DMSO (400-fold over the final concentration in the assay well) and 25 nl is acoustically transferred to the appropriate well in the assay cell plate. The plates are then incubated for 60 minutes at 37 degrees. 10 ul of detection buffer (also prepared as described in the IP-One kit) is added to each well and the plates are incubated for 60 minutes in the dark. The plates are then read in a Perkin Elmer EnVision or equivalent reader able to measure FRET. Fluorescent ratio of emission at 665 and 620 nm is then converted to IP1 concentration by back calculating from an IP1 standard curve prepared at the time of the assay.

human GPR40, sequence (O14842 whole entry): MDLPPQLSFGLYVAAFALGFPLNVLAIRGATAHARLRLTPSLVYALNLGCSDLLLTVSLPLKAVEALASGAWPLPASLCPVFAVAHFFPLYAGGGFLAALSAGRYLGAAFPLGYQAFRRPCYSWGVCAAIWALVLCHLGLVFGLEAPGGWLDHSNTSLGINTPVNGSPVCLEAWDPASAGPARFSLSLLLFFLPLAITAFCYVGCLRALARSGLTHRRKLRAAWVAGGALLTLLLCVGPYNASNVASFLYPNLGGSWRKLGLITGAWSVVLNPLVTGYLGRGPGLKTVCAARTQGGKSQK

With COc1cc(-c2cnc(C3CCCc4ccc([C@H](C5CC5)[C@H](C)C(=O)O)cc4O3)cn2)c(F)cn1 (single isomer, unassigned) [Example 12] as the molecule, how does the EC50 read?
Its EC50 is 116 nM.

Which EC50 does the source give for COc1ccc(F)c(-c2ccc(C3CCCc4ccc([C@H](C5CCC5)[C@H](C)C(=O)O)cc4O3)cc2)c1 (single isomer, unassigned) [Example 10, Sodium (2S,3R)-3-cyclobutyl-3-((R or S)-2-(2′-fluoro-5′-methoxy-[1,1′-biphenyl]-4-yl)-2,3,4,5-tetrahydrobenzo[b]oxepin-8-yl)-2-methylpropanoate] here?
The EC50 was 4.6 nM.

How did the EC50 turn out when COc1cc(-c2cnc(C3CCCc4ccc([C@H](C5CC5)[C@H](C)C(=O)O)cc4O3)cn2)c(F)cn1 (single isomer, unassigned) [Example 13] was run?
Its EC50 is 684 nM.

For COc1ccc(F)c(-c2ccc(C3CCCc4ccc([C@H](C5CCC5)[C@H](C)C(=O)O)cc4O3)cc2)c1 (single isomer, unassigned) [Example 11, Sodium (2S,3R)-3-cyclobutyl-3-((R or S)-2-(2′-fluoro-5′-methoxy-[1,1′-biphenyl]-4-yl)-2,3,4,5-tetrahydrobenzo[b]oxepin-8-yl)-2-methylpropanoate], which EC50 is on record?
Its EC50 is 6 nM.

How did the EC50 turn out when COc1cc(-c2ccc(C3CCCc4ccc([C@H](C5CC5)[C@H](C)C(=O)O)cc4O3)cc2)c(F)cn1 (single isomer, unassigned) [Example 6, (2S,3R)-3-cyclopropyl-3-((R or S)-2-(4-(5-fluoro-2-methoxypyridin-4-yl)phenyl)-2,3,4,5-tetrahydrobenzo[b]oxepin-8-yl)-2-methylpropanoic acid] was run?
The EC50 was 5.2 nM.

Which EC50 does the source give for COc1cc(-c2ccc(C3CCCc4ccc([C@H](C5CC5)[C@H](C)C(=O)O)cc4O3)cc2)c(F)cn1 (mixture of isomers) [Example 5, (2S,3R)-3-cyclopropyl-3-((RS)-2-(4-(5-fluoro-2-methoxypyridin-4-yl)phenyl)-2,3,4,5-tetrahydrobenzo[b]oxepin-8-yl)-2-methylpropanoic acid] here?
Its EC50 is 3.1 nM.

Which EC50 does the source give for C[C@H](C(=O)O)[C@H](c1ccc2c(c1)OC(C1CN(Cc3cc(C(F)(F)F)ccc3C(F)(F)F)C1)CCC2)C1CC1 (single isomer, unassigned) [Example 3, (2S, 3R)-3-((R or S)-2-(1-(2,5-bis (trifluoromethyl)benzyl)azetidin-3-yl)-2,3,4,5-tetrahydrobenzo[b]oxepin-8-yl)-3-cyclopropyl-2-methylpropanoic acid] here?
Its EC50 is 13 nM.

Which EC50 does the source give for COc1cc(-c2ccc(C3CCCc4ccc([C@H](C5CC5)[C@H](C)C(=O)O)cc4O3)c(F)c2)ccn1 (single isomer, unassigned) [Example 1, (2S,3R)-3-cyclopropyl-3-((R or S)-2-(2-fluoro-4-(2-methoxypyridin-4-yl)phenyl)-2,3,4,5-tetrahydrobenzo[b]oxepin-8-yl)-2-methylpropanoic acid] here?
The EC50 was 3.6 nM.

COc1cc(-c2ccc(C3CCCc4ccc([C@H](C5CC5)[C@H](C)C(=O)O)cc4O3)nc2)c(F)cn1 (mixture of isomers) [Example 7, (2S,3R)-3-cyclopropyl-3-((RS)-2-(5′-fluoro-2′-methoxy-[3,4′-bipyridin]-6-yl)-2,3,4,5-tetrahydrobenzo[b]oxepin-8-yl)-2-methylpropanoic acid] was tested. Which EC50 did it give?
Its EC50 is 3 nM.

How did the EC50 turn out when COc1cc(-c2ccc(C3CCCc4ccc([C@H](C5CC5)[C@H](C)C(=O)O)cc4O3)nc2)c(F)cn1 (single isomer, unassigned) [Example 8, (2S,3R)-3-cyclopropyl-3-((R or S)-2-(5′-fluoro-2′-methoxy-[3,4′-bipyridin]-6-yl)-2,3,4,5-tetrahydrobenzo[b]oxepin-8-yl)-2-methylpropanoic acid] was run?
Its EC50 is 29 nM.

C[C@H](C(=O)O)[C@H](c1ccc2c(c1)OC(C1CN(Cc3cc(C(F)(F)F)ccc3C(F)(F)F)C1)CCC2)C1CC1 (single isomer, unassigned) [Example 4, (2S,3R)-3-((R or S)-2-(1-(2,5-bis(trifluoromethyl)-benzyl)azetidin-3-yl)-2,3,4,5-tetrahydrobenzo[b]-oxepin-8-yl)-3-cyclopropyl-2-methylpropanoic acid] was tested. Which EC50 did it give?
Its EC50 is 27 nM.

COc1cc(-c2ccc(C3CCCc4ccc([C@H](C5CC5)[C@H](C)C(=O)O)cc4O3)c(F)c2)ccn1 (single isomer, unassigned) [Example 2, (2S,3R)-3-cyclopropyl-3-((R or S)-2-(2-fluoro-4-(2-methoxypyridin-4-yl)phenyl)-2,3,4,5-tetrahydrobenzo[b]oxepin-8-yl)-2-methylpropanoic acid] was tested. Which EC50 did it give?
The EC50 was 14 nM.
